{"source": "paper PMC3353318", "about": "(Bioorganic & Medicinal Chemistry, 2011)", "key": {"[1]": {"target": "A/M2 S31N mutant (Influenza A virus, UniProt P0DOF5, S31N)", "format": "cell-based, influenza A/Udorn/72"}, "[2]": {"target": "A/M2 V27A mutant (Influenza A virus, UniProt P0DOF5, V27A)", "format": "cell-based, influenza A/Udorn/72"}}}
{"substance": "6,7,8,9,10,11-Hexahydro-9-methyl-5,7:9,11-dimethano-5H-benzocyclononen-7-amine hydrochloride [Compound 3]", "values": [{"measurement": "inhibition of S31N A/M2 channel activity (in words)", "setting": "[1]", "value": "Neither 3 nor 11 were able to inhibit"}, {"measurement": "inhibition of V27A A/M2 channel activity (in words)", "setting": "[2]", "value": "Neither 3 nor 11 were able to inhibit"}]}
{"substance": "N,N-Dimethyl-6,7,8,9,10,11-hexahydro-9-methyl-5,7:9,11-dimethano-5H-benzocyclononen-7-amine hydrochloride [Compound 11]", "values": [{"measurement": "inhibition of S31N A/M2 channel activity (in words)", "setting": "[1]", "value": "Neither 3 nor 11 were able to inhibit"}, {"measurement": "inhibition of V27A A/M2 channel activity (in words)", "setting": "[2]", "value": "Neither 3 nor 11 were able to inhibit"}]}
{"substance": "N-Benzyl-6,7,8,9,10,11-hexahydro-9-methyl-5,7:9,11-dimethano-5H-benzocyclononen-7-amine hydrochloride [Compound 6]", "values": [{"measurement": "inhibition of S31N A/M2 channel activity (in words)", "setting": "[1]", "value": "unable to inhibit"}, {"measurement": "inhibition of V27A A/M2 channel activity (in words)", "setting": "[2]", "value": "unable to inhibit"}]}
